The values below come from patent publication US20190169134A1, “NOVEL CLASS OF QUINOLONE HETEROCYCLIC AROMATIC MOLECULES FOR CANCER TREATMENT” (RenoTarget Therapeutics, Inc., priority 2016, published 2019).

One assay relates to tested cancer cell lines. In words: Cell growth inhibition by SRB method, tested cancer cell lines overall. The class given is cell-based, human. To be noted: data not provided. An excerpt: (§1) Six human cancer cell lines have been used to evaluate effects of the compounds on proliferation of cancer cells. These cell lines include HCC827-P (or HCC827 parent cells), human non-small lung cancer cells, Parent NSCLC HCC827 cell line (which harbors EGFR gene amplification, Exon 19 (E19) deletion, and Exon 21 mutation (Wang, Ramakrishnan et al. 2010), and is an EGFRi sensitive cell line (Kim, Kim et al. 2010)); HCC827-TR16 (Tarceva-resistant HCC727 cell line), HCC827-OR16 (AZD9291-resistant HCC727 cell line), LNCaP (human prostate cancer cells—a hormonal-therapy sensitive cell line (Wang, Liu et al. 1997)); 22RV1 (human prostate cancer cells—a hormonal-therapy resistant cell line (Sramkoski, Pretlow et al. 1999)); and ACHN (human renal adenocarcinoma cells (Park, Jung et al. 2003)). LNCaP cells and 22RV1 cells were purchased from the American Type Culture Collection (Rockville, Md.) and others were gifts of friends.
(§2) All cell lines were maintained in RPMI-1640 (GIBCO, Gaithersburg, Md.) with 10% heat-inactivated bovine serum (FBS) (Wang, Ossowski et al. 2004).
(§3) Sulforhodamine B (SRB) was used to estimate cell growth as described previously (Skehan, Storeng et al. 1990). Briefly, cells grown exponentially were aliquoted into 96-well plates at a density of 2,500 to 5,000 cells/200 μl per well in RPMI 1640 medium containing 10% FBS. After twenty-four hours, the cells were exposed to indicated concentrations of tested compounds for 72 hrs or otherwise as indicated. The cells were then fixed with 10% trichloride acetic acid for 2 h at 4° C. The 10% trichloride acetic acid was removed, and the dishes were washed 5 times with tape water, and air-dried. The fixed and dried cells were then stained with 0.4% SRB in 1% acetic acid for 25 min, and the dishes were washed 5 times with 1% acetic acid and air-dried overnight. 200 μl of 10 mM of Tris buffer (pH 10.0) were added, and the dishes were rotated to completely dissolve the color. Absorbance at 570 nm, with a reference wavelength 690 nm, was measured on a 96-well microplate reader (SPECTRO Star^Nano, BMG Labtech). Mean, standard deviation (SD) and the percent of growth inhibition at each concentration point of the treatment were calculated. The percent of growth inhibition as defined as (1−T/C)×100 where T is the mean of the absorbance at 570 nm from the treatment, and C from control (drug vehicle only). IC50 was calculated using Sigma-plot software by regression of growth-concentration curve from each drug treatment.

A further assay deals with 22RV1. In words: Cell growth inhibition by SRB method. The assay is classed as cell-based, human. As to conditions: Homo sapiens, 22Rv1, 72 h, 72 hrs exposure, SRB.
Text: as §1, §2, §3
(In SRB staining, fixed cells bind dye roughly in proportion to their protein.)

The next assay relates to LNCaP. The experiment in a line: Cell growth inhibition by SRB method. The class given is cell-based, human. To be noted: Homo sapiens, LNCaP; 72 hrs exposure, SRB.
Text: as §1, §2, §3

The subject of a further assay is ACHN. In words: Cell growth inhibition by SRB method. The assay is classed as cell-based, human. As to conditions: Homo sapiens, ACHN, 72 hrs exposure.
Text: as §1, §2, §3

For another assay, the system named is HCC827OR16. The experiment in a line: Cell growth inhibition by SRB method. The class given is cell-based, human. As to conditions: Homo sapiens, AZD9291-resistant line, 72 hrs exposure.
Text: as §1
(§4) To evaluate activities of new compounds on growth of EGFR-inhibitor-resistant cells, two EGFRi-resistant cell lines, i.e., HCC827-TR16 and HCC827-OR16 were established using a method described by Eberlein et al. (Eberlein, Stetson et al. 2015). […] Resistant cells were collected and stabilized after 5 weeks (cycle 5). […] The resistant cells were sorted using 96-well dishes by culturing cells with density of 0.1, 1, 10, and 100 cells per well.
as §2, §3

Another assay concerns HCC827P. The experiment in a line: Cell growth inhibition by SRB method. The assay is classed as cell-based, human. As to conditions: Homo sapiens; 72 hrs exposure, SRB.
Text: as §1, §4, §2, §3

A further assay concerns HCC827TR16. The experiment in a line: Cell growth inhibition by SRB method. To be noted: Homo sapiens, Tarceva-resistant line, 72 hrs exposure. The assay is classed as cell-based.
Text: as §1, §4, §2, §3

Consider `C#Cc1cccc(Nc2ncnc3cc(OCCOC)c(NC(=O)c4ccc(F)c([N+](=O)[O-])c4)cc23)c1` [Reno647, 4-Fluoro-N-[4-(3-ethynyl-phenylamino)-7-(2-methoxy-ethoxy)-quinazolin-6-yl]-3-nitro-benzamide], for which the “activities against all tested cancer cells lines compared with NK-2206 and MLN8237” value with tested cancer cell lines is reported as “better activities”. In addition, the half-inhibitory concentration (IC50) in the assay on 22RV1 is around 500 nM; with LNCaP, 1250 nM; in the assay on ACHN it was 1250 nM; with HCC827OR16, 380 nM; in the assay on HCC827P, 150 nM; with HCC827TR16 it was 1300 nM.

One may read the IC50 as the midpoint of a concentration-inhibition curve. Read a low IC50 as inhibition by little substance.
